Laboratory results: patent publication US20240300935A1, “Nitrogen Oxide Donors of Beraprost Derivative and the Pharmaceutical Compositions with the Use Thereof” (GUANGZHOU KEMROCMED CO., LTD., priority 2021, published 2024)

Columns and labels:
[1] = In vitro NO release test (Griess method); settings: 200 μM test compound solution mixed with 200 μM L-cysteine solution, 37° C.
Description: NO was transiently oxidized in aqueous solution using released NO by Griess' method, NO^2− And Griess reagent form a complex, which has strong UV uptake at 540 nm to determine the amount of NO released by the compound. • 1) Preparation of solution: blank solution: 10 mL DMSO and 190 m L PBS mixed; G riess Reagent: sulfonamide (4.0 g), N-(1-naphthalyl) ethylenediamine dihydrochloride (0.2 g) and 10 mL 85% H3PO4 dissolved in 90 mL of distilled water, Blow until clear solution; L-cysteine solution: after accurate weighing of L-cysteine, Add a certain amount of PBS, Prepare a weighed 200 μM solution; Test compound solution: the exact weighing of the test compound, Dissolved in D MSO and diluted to a concentration of 1 mM, Then, when diluted in PBS, To a concentration of 200 μM.
2) Formulation of standard curve equation: prepare sodium nitrite solution concentration: 0 ,0 , 1, 3, 6, 12.5, 25, 50, 100 μmol/L, 150 μL of each concentration, add 50 μL of Griess reagent mix, incubated in 37° C. constant temperature shaker for 30 min, the plate reader measured each tube absorbance at 540 nm, after subtracting the blank solution reading, the standard curve equation . . . 78.56.13.25 • 3) Test compound test: mix 2 mL of the test compound solution and L-cysteine solution, incubate in 37° C. constant temperature shakers for 120 min, take 150 μL of each mixture, add 50 μL of Griess reagent, then incubate in 37° C. constant temperature shaker for 30 min, the microplate measured each tube absorbance at 540 nm, then subtract the blank solution reading and substitute the value into the standard curve equation to obtain NO release.

[2] = system: rats with hypoxic pulmonary hypertension; experiment: In vivo test in rats with hypoxic pulmonary hypertension; design: species or system rat; settings: SD male rats, low pressure low oxygen chamber, 5 mg/kg, after four weeks, vs model group
Description: • 1) Experimental instruments and materials, HX-200 animal ventilator, and SD male rats used in the experiment were all purchased from Yangzhou University. All control groups were reared in a normal environment, and the administration intervention and model groups were reared in the low pressure low oxygen chamber (air pressure 50 kPa, oxygen concentration 10%). • 2) Compound 15 was dissolved using DMSO/solutol/water (10/10/80). In the intervention group, the dose was 5 mg/kg, all rats were weighed weekly, survival was recorded, and pulmonary artery pressure was measured after four weeks. Rats (3 ml/kg) were anesthetized with chloral hydrate (100 g/L), fixed in the supine position, tracheotomy, and breathing assisted with a small animal ventilator (frequency 60 beats/min, 5 ml, breath ratio 4:5). Free the left third rib, a catheter connecting one end to the tension transducer was sent to the pulmonary artery, and the mean pulmonary artery pressure (mP AP) was recorded through the BL-420E Biofunction experimental system. […] The results of FIG. 1 show the effect of beraprost derivative compound 15.

[3] = system: platelet aggregation induced by ADP; experiment: Antiplatelet aggregation effect, ADP-induced, turbidimetry in platelet-rich plasma; type: cell-based; settings: Homo sapiens, 2 min; platelet rich plasma of healthy subjects; 25 μL of 50 nM compound solution in 225 μL plasma, 37° C. 2 min; ADP final 2 μM; read-out: The rate of platelet aggregation inhibition
Description: • 1) Experimental material: ADP, epinephrine, collagen (bilBio) • 2) Experimental method: blood samples provided by healthy subjects were mixed blood with 3.8% citric acid solution and centrifuged at 160 r/min to obtain platelet-rich plasma. To calibrate the data, the obtained platelet-rich plasma was further centrifuged at 2000 r/min to obtain platelet-poor plasma, stored in a −20° C. refrigerator. Testing was performed using Born I's turbiometry. 225 μL of platelet rich plasma was added to the reaction cup, the embodiment compound was configured as 50 nM solution (25 m M Tris-acetate and 120 m M N a Cl), 25 μL of embodiment compound solution was added and after incubation at 37° C. for 2 min, 5 μL of ADP (final concentration 2 μM) was added for platelet aggregation induction. To assess the degree of platelet aggregation, the maximum absorbance value took the data after ADP, thus calculating the inhibition rate of ADP-induced platelet aggregation by each embodiment compound. According to the data in Table 6 below, the compounds of the present application embodiment all have a good effect of inhibiting the platelet aggregation induced by ADP.

[4] = system: postmenopausal osteoporosis mouse model; experiment: Therapeutic effect of osteoporosis, postmenopausal osteoporosis mouse model (ovariectomy); type: in vivo; design: Tb · N: unit not given here
From the text: • 1) Test materials; 1. Animal clean grade C57BL/6 strain, 8-10 weeks old not pregnant females were purchased from Yangzhou University. 2. Main reagents and instruments, Bujiale (estradiol valerate tablets, Bayer); mouse osteocalcin (osteocalcin, OC) enzyme-linked immunotest kit, alkaline phosphatase (alkaline phosphatase, ALP) test kit, tartrate acid phosphatase (StrACP) test kit (all the above kits were purchased in Nanjing). Dual-energy X-ray bone densitometer (HOLOGIC); ECLIPSE 50i microscope (Nikon); MUTISKANMK3 microplate reader (Thermo); tissue slicing equipment (including KD-TS3D1 biological tissue automatic dehydrmachine (Zhejiang Cody), TB-718 biological tissue automatic embedding machine (Hubei), R138 rotary slicer (Hubei), TK-212 automatic constant temperature drift instrument (Hubei), TK-213 automatic constant temperature dryer (Hubei), etc.). • 2) Test method: A animals were grouped, and the random method divided the female mice into 4 groups, namely, sham operation group, model group, positive drug group, and test drug group. B Preparation of postmenopausal osteoporosis mouse model, chloral hydrate anesthesia and removed the ovaries in the lying position. In the sham group, only the same volume of fat tissue near the ovaries was removed. Vaginal smear was performed on days 4-8 after ovariectomy to determine if the ovariectomy was complete. Method of c, on the third day after the operation, positive control drug (0.1 mL/10 g gavage), equal volume of 0.9%sodium chloride solution in sham group and model group, continuous gavage for 28 d. Test ResResults test: Blood and bone tissue samples after day 28. The following indicators were tested: (1) determination of bone density, lumbar L4-6 measurement of bone density by double energy X-ray bone density instrument. (2) Observation of bone tissue and morphology, the bone tissue and morphology changes were observed by tibial HE staining, mainly testing the trabecular volume ratio (bone volume/tissue volume, BV/TV) and the number of trabecular bone (trabecular bone number, Tb. N) and trabecular separation (trabecular separation, Tb. And sp) were the quantitative evaluation index. (3) For the determination of biological indicators ALP, StrACP, OC, and E 2 in mouse serum, blood was collected by enucleation method, and by kit and enzyme-linked adsorption assay.

[5] = system: renal tubular epithelial cells in acute renal failure; experiment: Renal tubular protective effect of acute renal failure (co-culture with isolated cells); type: cell-based, rat; settings: renal tubular epithelial cells from acute renal failure rats, 200 μg/mL
From the text: • 1) Test materials, glycerol (MacLean Company); CCK-8 kit, Annexin V-PE cell apoptosis detection kit, superoxide dismutase activity detection kit, malondialdehyde detection kit (Biyun Biotech); first anti-cysteine aspartate protease, caspase 3 and 9, B lymphocytoma-2 gene, Bcl-2-associated X protein (BAX, anti-rabbit), TGF-β 1, smad 3 (abcam, USA). Protein gel imager, microplate reader, and flow cytometer (Beckman Coulter, Type CytoFLEX). Clean-grade SD rats were purchased from Yangzhou University. • 2) Test method, the model of acute renal failure of rat hind limb injection was used. After 24 h, the level of BUN and Cr increased in rat serum, vascular necrosis of renal interstitium, and inflammatory cell infiltration were regarded as successful model establishment. Some renal tissues from model animals were taken for in vitro culture, renal tubular epithelial cells were isolated and identified, and test drug co-culture (0-24 hours) was added. Changes of various biochemical indicators and apoptosis were determined. […] Conclusion Test compounds can promote tubular epithelial cells proliferation, inhibit apoptosis, inhibit oxidative stress, and slow the damage of renal tubular epithelial cells by inhibiting the expression of proapoptotic proteins.

[6] = tibial HE staining, ovariectomised C57BL/6 mice, gavage 28 d

SMILES: CC#CCC(C)[C@@H](O)/C=C/[C@H]1[C@@H]2c3cccc(CCCC(=O)OCC4CCCC(CO[N+](=O)[O-])C4)c3O[C@@H]2C[C@@H]1O (stereo partly shown) [Compound 15]
- 120 min NO^2− [1]: 12.7 µM
- mean pulmonary artery pressure (mPAP) [2]: lower compared with the model group
- inhibition at 0.005 µM [3]: 92%
- ALP ([4]; mouse serum, day 28): 19 ± 2.2 King-Armstrong unit/100 mL
- E2 ([4]; mouse serum, day 28): 35 ± 4 ng/mL
- OC ([4]; mouse serum, day 28): 1.7 ± 0.2 ng/mL
- Str ACP ([4]; mouse serum, day 28): 41 ± 3.6 U/L
- BV/VT [4, 6]: 0.29 ± 0.05
- Tb · N [4, 6]: 7.5 ± 0.6
- Tb · sp [4, 6]: 152 ± 15 μm
- B AX protein level [5]: 0.32 ± 0.12
- B CL2 protein level [5]: 0.56 ± 0.11
- MDA [5]: 489 ± 38 Nnol/g protein
- S mad3 protein level [5]: 0.19 ± 0.07
- SOD [5]: 1016 ± 117 U/g egg white
- T GF-β1 protein level [5]: 0.24 ± 0.05
- The rate of apoptosis [5]: 9 ± 0.7%
- caspase3 protein level [5]: 0.28 ± 0.06
- caspase9 protein level [5]: 0.48 ± 0.1

SMILES: CC#CCC(C)[C@@H](O)/C=C/[C@H]1[C@@H]2c3cccc(CCCC(=O)OCCCCOC(=O)CCO[N+](=O)[O-])c3O[C@@H]2C[C@@H]1O (stereo partly shown) [Compound 19]
- 120 min NO^2− [1]: 11.3 µM
- inhibition at 0.005 µM [3]: 69%

SMILES: CC#CCC(C)[C@@H](O)/C=C/[C@H]1[C@@H]2c3cccc(CCCC(=O)OCCOC(=O)CCO[N+](=O)[O-])c3O[C@@H]2C[C@@H]1O (stereo partly shown) [Compound 20]
- 120 min NO^2− [1]: 10.0 µM
- inhibition at 0.005 µM [3]: 45%

SMILES: CC#CCC(C)[C@@H](O)/C=C/[C@H]1[C@@H]2c3cccc(CCCC(=O)OCCOC(=O)C(C)CO[N+](=O)[O-])c3O[C@@H]2C[C@@H]1O (stereo partly shown) [Compound 21]
- 120 min NO^2− [1]: 11.1 µM
- inhibition at 0.005 µM [3]: 81%

SMILES: CC#CCC(C)[C@@H](O)/C=C/[C@H]1[C@@H]2c3cccc(CCCC(=O)OCCCOC(=O)CCCO[N+](=O)[O-])c3O[C@@H]2C[C@@H]1O (stereo partly shown) [Compound 22]
- 120 min NO^2− [1]: 13.7 µM
- inhibition at 0.005 µM [3]: 52%

SMILES: CC#CCC(C)[C@@H](O)/C=C/[C@H]1[C@@H]2c3cccc(CCCC(=O)OCCCCOC(=O)CO[N+](=O)[O-])c3O[C@@H]2C[C@@H]1O (stereo partly shown) [Compound 23]
- 120 min NO^2− [1]: 15.5 µM
- inhibition at 0.005 µM [3]: 56%

SMILES: CC#CCC(C)[C@@H](O)/C=C/[C@H]1[C@@H]2c3cccc(CCCC(=O)OCOC(=O)Cc4ccc(CO[N+](=O)[O-])cc4)c3O[C@@H]2C[C@@H]1O (stereo partly shown) [Compound 24]
- 120 min NO^2− [1]: 15.8 µM
- inhibition at 0.005 µM [3]: 47%

SMILES: CC#CCC(C)[C@@H](O)/C=C/[C@H]1[C@@H]2c3cccc(CCCC(=O)OCCOC(=O)c4cccc(CO[N+](=O)[O-])c4)c3O[C@@H]2C[C@@H]1O (stereo partly shown) [Compound 25]
- 120 min NO^2− [1]: 10.7 µM
- inhibition at 0.005 µM [3]: 35%

SMILES: CC#CCC(C)[C@@H](O)/C=C/[C@H]1[C@@H]2c3cccc(CCCC(=O)OCCCOC(=O)c4cccc(CO[N+](=O)[O-])c4)c3O[C@@H]2C[C@@H]1O (stereo partly shown) [Compound 26]
- 120 min NO^2− [1]: 12.6 µM
- inhibition at 0.005 µM [3]: 22%

SMILES: CC#CCC(C)[C@@H](O)/C=C/[C@H]1[C@@H]2c3cccc(CCCC(=O)OCCCCOC(=O)c4cccc(CO[N+](=O)[O-])c4)c3O[C@@H]2C[C@@H]1O (stereo partly shown) [Compound 27]
- 120 min NO^2− [1]: 11.9 µM
- inhibition at 0.005 µM [3]: 35%

SMILES: CC#CCC(C)[C@@H](O)/C=C/[C@H]1[C@@H]2c3cccc(CCCC(=O)OCC(CO[N+](=O)[O-])CO[N+](=O)[O-])c3O[C@@H]2C[C@@H]1O (stereo partly shown) [Compound 28]
- 120 min NO^2− [1]: 14.8 µM
- inhibition at 0.005 µM [3]: 47%

SMILES: CC#CCC(C)[C@@H](O)/C=C/[C@H]1[C@@H]2c3cccc(CCCC(=O)OCCC(CO[N+](=O)[O-])CO[N+](=O)[O-])c3O[C@@H]2C[C@@H]1O (stereo partly shown) [Compound 29]
- 120 min NO^2− [1]: 16.2 µM
- inhibition at 0.005 µM [3]: 56%

SMILES: CC#CCC(C)[C@@H](O)/C=C/[C@H]1[C@@H]2c3cccc(CCCC(=O)OCOCC(CO[N+](=O)[O-])O[N+](=O)[O-])c3O[C@@H]2C[C@@H]1O (stereo partly shown) [Compound 30]
- 120 min NO^2− [1]: 17.8 µM
- inhibition at 0.005 µM [3]: 52%

SMILES: CC#CCC(C)[C@@H](O)/C=C/[C@H]1[C@@H]2c3cccc(CCCC(=O)OCCCOCC(CO[N+](=O)[O-])O[N+](=O)[O-])c3O[C@@H]2C[C@@H]1O (stereo partly shown) [Compound 31]
- 120 min NO^2− [1]: 16.7 µM
- inhibition at 0.005 µM [3]: 67%

SMILES: CC#CCC(C)[C@@H](O)/C=C/[C@H]1[C@@H]2c3cccc(CCCC(=O)OCOc4c(S(=O)(=O)c5ccccc5)no[n+]4[O-])c3O[C@@H]2C[C@@H]1O (stereo partly shown) [Compound 32]
- 120 min NO^2− [1]: 20.4 µM
- inhibition at 0.005 µM [3]: 55%

SMILES: CC#CCC(C)[C@@H](O)/C=C/[C@H]1[C@@H]2c3cccc(CCCC(=O)OCCOc4no[n+]([O-])c4S(=O)(=O)c4ccccc4)c3O[C@@H]2C[C@@H]1O (stereo partly shown) [Compound 33]
- 120 min NO^2− [1]: 14.2 µM
- inhibition at 0.005 µM [3]: 82%
